Results: patent US20080227640A1, “Plant Growth Regulation” (Bayer CropScience GmbH, priority 2004, published 2008)

Columns and labels:
[1] = test system: maize (Zea mays, variety "LORENZO"); assay: Root growth assay, seed treatment, maize; format: in vivo; conditions: Root Growth of 100 set as standard (untreated control), wet root weight 16 (±2) days post treatment
Description: (§1) Plant roots are a highly proliferative tissue which allows to be seen as a reliable target organ in order to screen for plant growth regulators. The results obtained are regarded as an indication for the overall effects on a plant of plant growth regulators identified by such a system. By using this root assay one is enabled to determine the effect of a seed treatment to root growth and/or germination and/or changes in habitat of germinated plants in order to identify the possible use as a yield enhancer. Two seeds of wheat (Triticum aestivum, variety “TRISO”) or 1 seed of maize (Zea mays, variety “LORENZO”) per hole in a plastic tray which contains an architecture of 8×13 holes were placed on compost soil covered with sand. These seeds were treated with 100 μl/hole, which creates an application volume of approx. 1200 l/ha, of a compound solution at active ingredient rates equivalent to 100, 10 and 1 g a.i./ha of each compound using an robotic application system (Lizzy Spray Robotics). Six replicates in a row of each compound and concentration were done. The outer rim of the above defined plastic tray was untreated to avoid false negative effects and the middle row (No. 7) was used as untreated control. The treated seeds were allowed to dry for approx. 4 hours and subsequently covered with sand and watered. The trays were stored in climate chambers with 14 hours lighting at a temperature of 24° C. (±2) at daytime and 16° C. (±2) at night and relative humidity (rH) of 60% and daily watered. Assessments were done 16 (±2) days post treatment by counting the germinated plants and assessing the phytotoxicity symptoms and percentage. In addition, the roots were washed out and the shoots were cut directly above the seed and the wet roots were placed on dry paper towels for approximately 30 minutes and weighted afterwards. This procedure provides a similar grade of moisture to the roots so that a comparison of the weights is possible.
(§2) The effects observed concerning Root Growth given in column 2 (Root Growth of “100” is set as the standard) are directed to concentrations that are equivalent to 100, 10, 1 g a.i./ha, each.

[2] = test system: wheat (Triticum aestivum, variety "TRISO"); assay: Root growth assay, seed treatment, wheat; format: in vivo; conditions: Root Growth of 100 set as standard (untreated control), wet root weight 16 (±2) days post treatment
Description: as §1, §2

SMILES	Root Growth ([1]; 1 g a.i./ha)	Root Growth ([1]; 10 g a.i./ha)	Root Growth ([1]; 100 g a.i./ha)	Root Growth ([2]; 1 g a.i./ha)	Root Growth ([2]; 10 g a.i./ha)	Root Growth ([2]; 100 g a.i./ha)
O=C1Nc2ccc(Br)cc2C1=NNc1ccc(Cl)cc1 [Compound 1.4]	105	125	99	–	–	–
CCON=C1C(=C2C(=O)Nc3ccc(Br)cc32)Nc2ccccc21 [Compound 2.4, 5-Bromoindirubin-3′-ethyloxime]	–	–	–	184	115	62
O=C1Nc2ccc(I)cc2/C1=C1/Nc2ccccc2/C1=N\O [Compound 2.1, 5-Iodoindirubin-3′-oxime]	–	–	–	135	151	122
O=C1Nc2ccc(Br)cc2C1=NNc1cc(Cl)cc(Cl)c1 [Compound 1.5]	–	–	–	149	117	161
O=C1Nc2ccc(Br)cc2C1=NNc1c(F)c(F)cc(F)c1F [Compound 1.2]	69	116	567	198	228	274
O=C1Nc2ccc(Cl)cc2C1=NNc1cccc([N+](=O)[O-])c1 [Compound 1.10]	126	107	102	–	–	–
Cc1ccc(NN=C2C(=O)Nc3ccc(Br)cc32)cc1 [Compound 1.6]	149	140	137	–	–	–
Cc1ccc(NN=C2C(=O)Nc3ccc([N+](=O)[O-])cc32)cc1Cl [Compound 1.12]	148	88	114	–	–	–
NS(=O)(=O)c1ccc(NN=C2C(=O)Nc3ccc(F)cc32)cc1 [Compound 1.23, 4-[2-(5-Fluoro-2-oxo-1,2-dihydro-3H-indol-3-ylidene)-hydrazino]-benzenesulfonamide]	–	–	–	135	61	65
O=C1Nc2ccc(F)cc2C1=NNc1c(F)c(F)cc(F)c1F [Compound 1.18]	150	85	170	–	–	–
O=C1Nc2ccc(F)cc2C1=C1Nc2ccccc2C1=NO [Compound 2.7]	174	159	118	182	390	172
O=C1Nc2ccc([N+](=O)[O-])cc2C1=NNc1ncc(C(F)(F)F)cc1Cl [Compound 1.8]	174	100	48	–	–	–
O=C1Nc2ccc(I)cc2C1=NNc1ncc(C(F)(F)F)cc1Cl [Compound 1.1]	–	–	–	209	93	170
